pEC50: −log10 of the molar value. ≈ marks a conversion by molar mass, not a printed value.

Data set [1] deals with T1, Relaxin receptor 1 (Mus musculus, UniProt Q6R6I7).
T1 sequence (Q6R6I7 whole entry): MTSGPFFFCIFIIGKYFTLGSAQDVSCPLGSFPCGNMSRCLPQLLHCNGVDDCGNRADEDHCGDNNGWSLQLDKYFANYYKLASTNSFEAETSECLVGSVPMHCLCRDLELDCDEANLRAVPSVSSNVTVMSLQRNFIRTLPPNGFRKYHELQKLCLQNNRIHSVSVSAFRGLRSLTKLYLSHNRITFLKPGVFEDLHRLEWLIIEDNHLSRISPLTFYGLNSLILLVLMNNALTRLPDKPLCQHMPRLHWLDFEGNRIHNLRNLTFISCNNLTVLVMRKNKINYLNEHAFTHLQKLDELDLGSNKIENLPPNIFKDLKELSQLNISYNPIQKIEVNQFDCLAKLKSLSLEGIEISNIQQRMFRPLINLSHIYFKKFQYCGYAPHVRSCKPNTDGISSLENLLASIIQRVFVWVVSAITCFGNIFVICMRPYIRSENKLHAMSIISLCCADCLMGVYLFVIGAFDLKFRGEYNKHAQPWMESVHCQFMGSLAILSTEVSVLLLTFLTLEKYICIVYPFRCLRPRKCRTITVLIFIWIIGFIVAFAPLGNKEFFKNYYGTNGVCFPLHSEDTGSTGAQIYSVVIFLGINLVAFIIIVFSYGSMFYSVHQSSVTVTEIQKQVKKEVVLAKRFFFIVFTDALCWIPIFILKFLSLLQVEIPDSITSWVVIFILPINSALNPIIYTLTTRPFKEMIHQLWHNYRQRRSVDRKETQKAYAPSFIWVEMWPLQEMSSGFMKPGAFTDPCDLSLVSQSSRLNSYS
Put plainly: Agonist activity at mouse RXFP1 stably expressed in HEK293 cells assessed as intracellular cAMP accumulation incubated for 30 mins by HTRF assay. Format: functional, cell-based. Background: Cyclic AMP is a second messenger, typically raised through Gs and lowered through Gi signalling.

Data set [2] is described as follows: Oral bioavailability in CD-1 mouse at 10 mg/kg. The settings on record: in vivo. Format: ADME, organism-based.
For data set [3], the target named is T1, Relaxin receptor 1. Put plainly: Partial agonist activity at mouse RXFP1 expressed in HEK293 cells assessed as intracellular cAMP accumulation incubated for 30 mins by HTRF assay. Format: functional, cell-based.
The target in data set [4] is T2, Relaxin receptor 1 (Homo sapiens, UniProt Q9HBX9).
T2 sequence (Q9HBX9 whole entry): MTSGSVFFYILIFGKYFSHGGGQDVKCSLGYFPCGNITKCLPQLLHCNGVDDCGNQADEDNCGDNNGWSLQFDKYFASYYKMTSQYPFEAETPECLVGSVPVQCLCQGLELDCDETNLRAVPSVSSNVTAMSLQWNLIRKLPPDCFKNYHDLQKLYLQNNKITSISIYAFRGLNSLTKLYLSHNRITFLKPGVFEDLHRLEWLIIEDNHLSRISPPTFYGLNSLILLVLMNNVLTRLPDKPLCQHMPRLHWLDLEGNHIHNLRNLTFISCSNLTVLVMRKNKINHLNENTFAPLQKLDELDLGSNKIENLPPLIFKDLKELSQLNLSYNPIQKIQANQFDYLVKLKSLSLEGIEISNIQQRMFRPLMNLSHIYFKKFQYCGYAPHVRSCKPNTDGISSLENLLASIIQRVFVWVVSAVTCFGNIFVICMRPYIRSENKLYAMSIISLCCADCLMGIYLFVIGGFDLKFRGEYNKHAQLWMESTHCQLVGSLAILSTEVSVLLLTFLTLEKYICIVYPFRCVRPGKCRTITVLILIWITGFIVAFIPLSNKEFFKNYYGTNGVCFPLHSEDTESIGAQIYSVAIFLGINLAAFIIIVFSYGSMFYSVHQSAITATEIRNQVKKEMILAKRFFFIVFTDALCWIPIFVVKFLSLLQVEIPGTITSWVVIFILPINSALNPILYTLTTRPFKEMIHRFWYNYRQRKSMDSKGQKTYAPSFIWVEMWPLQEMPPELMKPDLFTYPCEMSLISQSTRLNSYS
Put plainly: Agonist activity at human RXFP1 stably expressed in HEK293 cells assessed as intracellular cAMP accumulation incubated for 30 mins by HTRF assay.

Data set [5] has as its target T2, Relaxin receptor 1. Put plainly: Agonist activity at human RXFP1.
Data set [6] in a line: Thermodynamic aqueous solubility of compound in phosphate buffer at pH 7.4 by reversed-phase ultrahigh pressure liquid chromatography. The data set is classed as physicochemical. The settings on record: phosphate buffer, read-out: Therm_solubility.
Data set [7] in a line: Microsomal stability in mouse liver microsomes assessed as compound remaining measured after 30 mins. Format: ADME, Microsome. The settings on record: read-out: Stability. A general note: Microsomes from liver hold many membrane-bound enzymes, among them those of drug oxidation.
Data set [8] can be described thus: Microsomal stability in rat liver microsomes assessed as compound remaining measured after 30 mins. The data set is classed as ADME, Microsome. To be noted: read-out: Stability.
Data set [9] is described as follows: Microsomal stability in human liver microsomes assessed as compound remaining measured after 30 mins. The data set is classed as ADME, Microsome. The settings on record: read-out: Stability.
The target in data set [10] is T3, Relaxin receptor 1 (Rattus norvegicus, UniProt Q6R6I6).
T3 sequence (Q6R6I6 whole entry): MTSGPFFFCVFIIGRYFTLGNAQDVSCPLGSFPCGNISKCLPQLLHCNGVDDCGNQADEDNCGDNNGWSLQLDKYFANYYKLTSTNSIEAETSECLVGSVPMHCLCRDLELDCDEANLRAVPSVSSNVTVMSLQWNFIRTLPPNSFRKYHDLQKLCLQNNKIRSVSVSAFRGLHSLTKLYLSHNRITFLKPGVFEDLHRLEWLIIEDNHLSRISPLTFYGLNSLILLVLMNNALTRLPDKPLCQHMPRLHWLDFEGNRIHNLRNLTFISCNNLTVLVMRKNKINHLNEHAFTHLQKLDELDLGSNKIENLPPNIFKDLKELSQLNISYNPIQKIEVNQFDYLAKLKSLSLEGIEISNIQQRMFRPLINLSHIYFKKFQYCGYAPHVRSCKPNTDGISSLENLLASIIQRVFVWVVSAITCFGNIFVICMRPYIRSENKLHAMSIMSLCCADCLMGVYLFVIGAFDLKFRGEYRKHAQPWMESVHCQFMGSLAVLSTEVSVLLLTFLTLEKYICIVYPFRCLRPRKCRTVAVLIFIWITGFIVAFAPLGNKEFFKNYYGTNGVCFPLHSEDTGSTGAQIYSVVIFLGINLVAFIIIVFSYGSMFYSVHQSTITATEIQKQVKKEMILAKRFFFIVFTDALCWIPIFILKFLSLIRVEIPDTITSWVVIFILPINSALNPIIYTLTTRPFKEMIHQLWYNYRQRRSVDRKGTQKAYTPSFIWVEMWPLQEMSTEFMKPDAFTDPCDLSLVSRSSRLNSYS
Put plainly: Agonist activity at rat RXFP1 stably expressed in HEK293 cells assessed as intracellular cAMP accumulation incubated for 30 mins by HTRF assay. The data set is classed as cell-based.

For data set [11], the system named is Rattus norvegicus. Put plainly: Chronotropic effect in iv dosed isoflurane-anesthetized male naive Sprague-Dawley rat model assessed as increase in heart rate measured after 60 mins. The settings on record: dose lower […], dose upper 5.0 mg/kg/min. The data set is classed as functional, organism-based.
Data set [12] concerns Rattus norvegicus. Put plainly: Chronotropic effect in isoflurane-anesthetized male naive Sprague-Dawley rat model assessed as effect on heart rate at 0.5 mg/kg/min, iv measured after 60 mins. Format: functional, organism-based.

By pEC50 is commonly meant the negative decadic logarithm of the EC50, by convention in mol/L. A word on the bioavailability: it is dose-corrected exposure relative to a reference, in per cent. For `COc1ccc(-c2cncn2C)cc1C(=O)N[C@H]1[C@@H](C(=O)Nc2ccc(F)c(C(F)(F)F)c2)[C@H]2CC[C@@H]1C2=C(C)C`, the pEC50 at Relaxin receptor 1 [1] was < 5.00. The same molecule returned a bioavailability in [2] of 29%.
For the molecule `COc1ccc(-c2ccc(C(=O)O)cc2)cc1C(=O)N[C@H]1[C@@H](C(=O)Nc2ccc(F)c(C(F)(F)F)c2)[C@H]2CC[C@@H]1C2=C(C)C`, the pEC50 was 5.64 on Relaxin receptor 1 [1], 5.64 at Relaxin receptor 1 [3] and 6.42 at Relaxin receptor 1 [4].
At Relaxin receptor 1 [5], `COc1cc(F)c(F)cc1C(=O)Nc1ccccc1C(=O)Nc1ccc(F)c(C(F)(F)F)c1` showed a pEC50 of 5.92.
As for `COc1ccc(-c2cc(C(=O)O)ccc2F)cc1C(=O)N[C@H]1[C@@H](C(=O)Nc2ccc(F)c(C(F)(F)F)c2)[C@H]2CC[C@@H]1/C2=C\c1cnoc1`, the pEC50 is 6.24 on Relaxin receptor 1 [1], 6.24 on Relaxin receptor 1 [3] and 6.06 at Relaxin receptor 1 [10]. The solubility thermodynamic in [6] was determined as 15 µg/mL (≈ 22.5 µM). Moreover, the remaining at 0.5 h in data set [7], in [8] and in data set [9] was > 90% in each case.
As to `COc1ccc(-c2cc(C(=O)O)ccc2F)cc1C(=O)N[C@H]1[C@@H](C(=O)Nc2ccc(F)c(C(F)(F)F)c2)[C@H]2CC[C@@H]1/C2=C\C(F)(F)F`, the pEC50 on Relaxin receptor 1 [1] and on Relaxin receptor 1 [3] was 6.30 throughout. Further, the remaining at 0.5 h in [7], in data set [8] and in [9] was > 90% each time. The molecule also returned a bioavailability in [2] of 36%.
In the case of `CNC(=O)OC(C(=O)O)c1ccc(F)c(-c2ccc(OC)c(C(=O)N[C@H]3[C@@H](C(=O)Nc4ccc(F)c(C(F)(F)F)c4)[C@H]4CC[C@@H]3/C4=C\C3CC3)c2)c1` (stereo in doubt; 39), the Activity entry in the data set on Rattus norvegicus [11] is “Dose-dependent-effect”; in the data set with Rattus norvegicus [12], “No effect”.
In the case of `COc1ccc(-c2cc(C(=O)NS(C)(=O)=O)ccc2F)cc1C(=O)N[C@H]1[C@@H](C(=O)Nc2ccc(F)c(C(F)(F)F)c2)[C@H]2CC[C@@H]1/C2=C\c1cnoc1`, the pEC50 was 6.25 on Relaxin receptor 1 [1], 6.05 on Relaxin receptor 1 [10] and 7.66 at Relaxin receptor 1 [4]. The solubility thermodynamic in [6] is < 1 µg/mL. The remaining at 0.5 h in data set [7], in data set [8] and in data set [9] was > 90% throughout.

The values above are taken from ChEMBL document CHEMBL6182920, “The Discovery of C7-Substituted Norbornyl Bisamides as RXFP1 Small Molecule Agonists” (J Med Chem, 2025).
